Here are results for one molecule from patent US6569456B2, “Osmotic device containing diltiazem and an ACE inhibitor or diuretic” (priority 2000, dated 2003).

This data set is described as follows: separate study of diltiazem half-life. The settings on record: in vivo. The source says: The delayed release of the diltiazem causes a delay in the onset of diltiazem build-up in the plasma. Accordingly, onset of the side effects (adverse events) associated with diltiazem therapy have a delayed onset and a patient taking the medication before a rest period should not experience any difficulty in falling asleep.

In general, half-life refers to the time needed for the level to fall by half in the phase considered. Higher therefore signals slow decline. Consider `COc1ccc([C@@H]2Sc3ccccc3N(CCN(C)C)C(=O)[C@@H]2OC(C)=O)cc1` [diltiazem], for which the half-life was ~8.5 h.
